From patent US11453642B2, “Oxygenated amino- or ammonium-containing sulfonic acid, phosphonic acid and carboxylic acid derivatives and their medical use” (GRI BIO, INC., priority 2011, dated 2022) come the findings set out here.

One data set deals with DTH response in mice. The format is in vivo. Conditions: for Inhibition of mouse ear swelling: DTH, 24 h after challenge. The protocol: The anti-inflammatory and anti-allergic effects of compounds 1a and 1c were assessed in a mouse model of skin delayed-type hypersensitivity (DTH) reactions and compared to a vehicle control and to the reference drug dexamethasone. DTH reactions are antigen-specific cell-mediated immune responses, driven primarily by T helper type 1 (Th1) cells, similar to the tuberculin immunization response. The immune reaction induced by an ovalbumin challenge to animals previously sensitized with ovalbumin in Complete Freund's Adjuvant, is characterized by swelling (edema) at the site of challenge, e.g. the mouse ear. Dexamethasone, an anti-inflammatory steroid, reduces cell-mediated immune responses and was employed to validate the responsiveness of the assay to pharmacological treatment.
Female BALB/cJW mice were bred at the University of Lodz, Lodz, Poland and housed in groups of 8 in makrolon cages with a 12 h light-dark cycle. Mice were given free access to food (Agropol S.j., Motycz, Poland) and water.
Sensitization: The protein antigen, ovalbumin, was reconstituted in PBS at 4 mg/ml. An ovalbumin-CFA emulsion was prepared by mixing the protein solution with the CFA suspension at a ratio of 1:1, using two Luer-lock syringes. The emulsion was tested by putting a drop of emulsion onto PBS; if the emulsion remained as a tight droplet on the PBS, the emulsion was deemed ready. Mice were sensitized by subcutaneously injecting 25 μL of emulsion into each side of the tail (100 μg ovalbumin per mouse).
Challenge: On the sixth day after sensitization, DTH was elicited by challenging animals subcutaneously (gauge 30 needle, B. Braun Melsungen, Melsungen, Germany) in the left ears with 10 μL of a 1% suspension of heat-aggregated ovalbumin (HOVA) (100 μg ovalbumin per mouse). The right ears were administered subcutaneously with PBS and served to determine the individual differences in ear thicknesses. HOVA was prepared by heating a 5% solution of ovalbumin in saline for 1 h at 80° C. with occasional swirling. After cooling to room temperature and centrifugation (400 g. 10 min at 4° C.), the pellet was washed twice with saline, resuspended at 2% in PBS and aliquots stored at −30° C. Before injection, HOVA was diluted with an equal volume of PBS and sonicated. Ear thickness was measured with a precise spring-loaded caliper (Art. No. 7309, Mitutoyo, Kawasaki, Japan) before challenge, and 24 h after challenge.
Sensitization, challenge and ear thickness measurement were performed under anesthesia (ketamine 80 mg/kg plus xylazine 8 mg/kg, intraperitoneally).
The anti-inflammatory effects of compounds 1a and 1c were compared to a vehicle control (0.5% methyl cellulose solution) and to the reference drug, dexamethasone. Test compounds were given at 25 or 100 mg/kg orally by gavage (Art. No. 432093, Harvard Apparatus GmbH, March-Hugstetten, Germany) 16 h and 3 h before sensitization and then twice daily with the final dose given 3 h prior to ear challenge (a total of 14 administrations). Dexamethasone was given at 0.1 or 1 mg/kg orally by gavage 3 h before sensitization and once daily with the final dose given 3 h prior to antigen challenge (a total of 7 administrations). All administrations were given in a volume of 10 ml/kg.
To account for individual variability, the increase in right ear thickness, before and 24 h after administration of PBS, was subtracted from the HOVA-induced increase in left ear thickness. The increase in ear thickness was calculated by the difference between ear thickness before and 24 h after antigen challenge. Percent inhibition of ear swelling was calculated according to the following formula: % inhibition=100×(IETvehicle−IETcompound)/IETvehicle where IET=(ET24 hrs pc−ETpredose)HOVA-treated ears−(ET24 hrs pc−ETpredose)PBS-treated ears • (IET, increase ear thickness; ET, ear thickness; pc, post challenge)
Mean and standard deviation (SD) were calculated from individual ear edema values. […]

In data set [1] the test system is allergic contact dermatitis response in mice. The data set can be described thus: Allergic contact dermatitis (TDI) model in mice, mouse ear swelling test. Format: in vivo. The protocol: The anti-inflammatory and anti-allergic effects of compounds 1a and 1c were assessed in a mouse model of allergic contact dermatitis, a response driven primarily by T helper type 2 (Th2) cells. […] In this model, an allergic dermatitis response is obtained by sensitizing mice to TDI and subsequently challenging them with antigen by topical administration onto the ears. A quantitative assessment of anti-inflammatory and anti-allergic effects of topically or orally administered test compounds is possible by measuring the resulting ear swelling. The advantages of the allergic contact dermatitis model (Zöllner et al., Bioessays 26:693-6 (2004)) are reproducibility and reliability (>90% of BALB/c mice respond to sensitization), a short induction protocol, quantitative assessment by measuring ear thickness, atopic dermatitis-like skin lesions can be induced, and clinically relevant pharmaceuticals, such as corticosteroids, calcineurin-inhibitors and PDE4-inhibitors, are effective in this model.
Female BALB/c-mice were obtained from Charles River (Sulzfeld, Germany) at age 8 weeks. All animals were housed in groups of eight per cage at 22° C. with a 12 h light/dark-cycle, Water and a standard diet (Altromin, Lage/Lippe, Germany) were available ad libitum. All animals were acclimatized for one week before experimental procedures were commenced.
Experimental procedures for BALB/c mice housing, TDI sensitization and challenge, and measurement of ear thickness were performed as previously described (Baumer et al., J Pharm Pharmacol, 55:1107-1114 (2003)) with the following modifications. For active sensitization, 100 μL of 5% (w/v) TDI was administered to the shaved and stripped abdominal epidermis on day one, and for the next three consecutive days, 50 μL of 5% (My) TDI was applied. The allergic reaction was boosted 21 days later by application of 50 μL of 0.5% (w/v) TDI. For the examination of test compound effects, the left ears were used for the TDI challenge (20 μL of 0.5% in acetone) and ear thickness measured 3 h before and 24 h after challenge.
Group size was n=7 mice unless otherwise stated. Test compounds were freshly prepared before administration.
Administration time: to determine optimal time for administration treatment groups were treated orally by gavage with 100 mg/kg of compound 1a or 1c (suspended in 0.5% tylose, 10 mL/kg) 1, 4 or 16 h before topical TDI challenge. One group was treated with 100 mg/kg miltefosine orally, 16 h before challenge (based on available data for optimal administration time for miltefosine) and vehicle treated mice received tylose (10 mL/kg) orally, 4 h before challenge.
Dose-response: two groups of mice were treated orally with compound 1a at 25 mg/kg or 100 mg/kg suspended in 0.5% tylose, 4 h before topical TDI challenge. Vehicle treated mice received 0.5% tylose orally 4 h before challenge. As a positive control, dexamethasone was administered in saline solution at 1 mg/kg or 3 mg/kg, 2 h and 30 min before challenge and 1 h after challenge. The dose and dosing scheme for dexamethasone was based on previous experience showing a maximal effect in this model.
Compound 1a was administered to two groups of mice topically in 20 μl of a 2% or 6% solution in propyleneglycol. The suspension was heated to 60° C. and mixed using a thermomixer (Eppendorf) until it became clear. The solution was applied, 2 h before topical TDI challenge by administration of 10 μl onto each of the inner and outer surfaces of the left ears. A vehicle group (17=5) was treated with propyleneglycol. As a positive control, diflorasone, diacetate was administered at 0.01% (low dose) and 0.05% (high dose) in 20 μl acetone, 2 h before challenge. A basal control group was left untreated.
Mean and standard error of the mean (SEM) were calculated from individual ear edema values. […]

Data set [2] has as its system collagen type II-induced arthritis (CIA). The settings on record: mouse, in vivo.
Data set [3] deals with RBL-2H3 cells. The data set can be described thus: Inhibition of mast cell degranulation (β-hexosaminidase release). The format is cell-based. Conditions: Rattus norvegicus, IgE-sensitized RBL-2H3 cells, 1 h with compound, antigen (DNP-HSA) 15 min. From the text: Mast cells are key effector cells involved in allergic and inflammatory diseases, and the Rat Basophilic Leukemia clone 2H3 (RBL-2H3) cell line is a commonly used model of allergen dependent immune modulator release (degranulation) in mast cells. On their surface, they express the high affinity receptor for IgE (FcεRI). Upon binding of antigen-specific IgE to the receptor, cells become sensitized to the IgE specific antigen (allergen). When IgE-sensitized cells then encounter multivalent antigen, the antigen clusters IgE-FcεRI complexes and initiates a signal transduction cascade that leads to degranulation, that is, the release of inflammatory mediators, such as cytokines, eicosanoids, histamine and enzymes. The assay can be used as a screening method to identify immune-modulating compounds, in particular compounds useful in the medical management of allergic and inflammatory diseases and asthma, β-hexosaminidase was previously shown to be released with the same kinetics as histamine (Schwartz et al., J Immunology; 123:1445-1450 (1979)), thus offering a simple means to monitor degranulation. […]
MUG substrate solution, 100 μl, were added to supernatant and lysate samples and plates were incubated 30 min at 37° C. […] Fluorescence was measured at 365 nm excitation and 440 nm emission wavelengths. […]

The test system of data set [4] is RBL-2H3 cells. Nature of the data set: Maximum tolerated concentration (cytotoxicity by lactate dehydrogenase release). Format: cell-based, Rat. From the text:
The safety index (SI) of a test compound is the ratio between the maximum tolerated concentration and the IC50 and is used as a measure of the relative safety of the test compound.

Values joined by “and” are separate entries in the source; they are usually repeats but may differ in a detail not shown here. Equal values may be shown once. Read-outs that look alike come from different tables or passages of the source. Marks after values point to notes of the source that are not given here.

Regarding `C[C@@H]1C[C@H]2[C@@H]3CCC4=CC(=O)C=C[C@]4(C)[C@@]3(F)[C@@H](O)C[C@]2(C)[C@@]1(O)C(=O)CO` [Dexamethasone, reference compound], the “Inhibition of mouse ear swelling” value is reported as 14% with DTH response in mice (0.1 mg/kg orally once daily (7 administrations)); 53% with DTH response in mice (1.0 mg/kg orally once daily (7 administrations)); 78.6*** % in data set [1] (dose-response study, 1 mg/kg, 2 h and 30 min before and 1 h after challenge); 78% in data set [1] (dose-response study, 1 mg/kg, 2 h and 30 min before and 1 h after challenge, listed as dexamethasone); 87.1*** % in data set [1] (dose-response study, 3 mg/kg, 2 h and 30 min before and 1 h after challenge); 87% in data set [1] (dose-response study, 3 mg/kg, 2 h and 30 min before and 1 h after challenge, listed as dexamethasone). The “loss in body weight” value in the data set on DTH response in mice (mouse, in vivo, po, 1 mg/kg) came to 9%. In addition, the “spleen and thymus weights” value in data set [2] is reported as “markedly reduced”.
A word on the IC50: it is the midpoint of a concentration-inhibition curve. `CCCCCCCCCCCCCCCCOP(=O)([O-])OCC[N+](C)(C)C` [Miltefosine, reference compound]: the IC50 in the data set with RBL-2H3 cells [3] was determined as 4.2 µM. In addition, the “MTC (maximum tolerated concentration)” value in the data set on RBL-2H3 cells [4] (highest concentration not causing cytotoxicity (LDH release), RBL-2H3 cells) was found to be 25 µM. Further, in the data set with RBL-2H3 cells [4] (ratio between MTC and IC50), the “SI (safety index)” value is recorded as 6.0. Further, the “inhibitory efficacy relative to that of 1a at its optimal administration time of 4 h” value in data set [1] (100 mg/kg oral, 16 h before challenge vs 1a 4 h) is 64%. The “inhibitory efficacy relative to that of compound 1c at its optimal administration time of 4 h” value in data set [1] (100 mg/kg oral, 16 h before challenge vs 1c 4 h) worked out at 69%. Besides, the “Inhibition of mouse ear swelling” value in data set [1] (administration time study, 100 mg/kg oral, 16 h before TDI challenge) is 47% and 47.3^§ %.
